Laboratory results as given in US10377753B2, “Substituted 4-azaindoles and their use as GluN2B receptor modulators” (Janssen Pharmaceutica NV, priority 2015, dated 2019).
Counter-ions that a name gives are not always drawn.

Target: cloned human NR1/NR2B ion channels (Homo sapiens (Human), UniProt Q05586+Q13224)
Test: HNR2BC: effects of test articles on cloned human NR1/NR2B ion channels expressed in mammalian cells (FLIPR calcium flux)
Format: cell-based
Details: cloned human NR1/NR2B, Table 5
Protocol: HNR2BC: Effects of Test Articles on Cloned Human NR1/NR2B Ion Channels Expressed in Mammalian Cells
NMDA receptors are ion channels that are highly permeable to Ca^2+ ions, rendering it possible to monitor NMDA receptor function using cell-based calcium flux assay. In this assay, co-agonists glutamate and glycine are added to cells heterologously expressing human GluN1/GluN2B NMDA receptors to initiate cellular Ca^2+ influx. The time course of the changes in intracellular calcium is measured using a fluorescent dye and a FLIPR (Fluorometric Imaging Plate Reader) device.
Twenty four hours before measurements, the expression of the NMDA receptors in the stable cell line is induced with Tet-On inducible system in the presence of a non-selective NMDA receptor blocker. On the day of the experiment, cell culture media is carefully washed and the cells are loaded with Calcium 5 Dye Kit (Molecular Devices) in dye loading buffer containing 137 mM NaCl, 4 mM KCl, 2 mM CaCl2, 0.5 mM MgCl2, 10 mM HEPES and 5 mM D-glucose; pH 7.4. After 1 h incubation at the room temperature, the dye is washed away with the assay buffer (137 mM NaCl, 4 mM KCl, 2 mM CaCl2, 0.01 mM EDTA, 10 mM HEPES and 5 mM D-glucose; pH 7.4) In the FLIPR TETRA reader, various concentrations of the test compounds are added to the cells for 5 min while fluorescence is monitored to detect potential agonist activity. Next, co-agonists, glutamate and glycine are added for another 5 minutes. The concentration of glutamate corresponding to ˜EC80 is used to maximize the assay's signal window and ability to detect NMDA receptor antagonists and negative allosteric modulators. A saturating concentration (10 μM) of glycine is also present in the assay. […] The fluorescent signal in the presence of test compounds is quantified and normalized to the signal defined by the appropriate control wells.

Sequence of cloned human NR1/NR2B ion channels (Q13224 27-1484, other chains not shown): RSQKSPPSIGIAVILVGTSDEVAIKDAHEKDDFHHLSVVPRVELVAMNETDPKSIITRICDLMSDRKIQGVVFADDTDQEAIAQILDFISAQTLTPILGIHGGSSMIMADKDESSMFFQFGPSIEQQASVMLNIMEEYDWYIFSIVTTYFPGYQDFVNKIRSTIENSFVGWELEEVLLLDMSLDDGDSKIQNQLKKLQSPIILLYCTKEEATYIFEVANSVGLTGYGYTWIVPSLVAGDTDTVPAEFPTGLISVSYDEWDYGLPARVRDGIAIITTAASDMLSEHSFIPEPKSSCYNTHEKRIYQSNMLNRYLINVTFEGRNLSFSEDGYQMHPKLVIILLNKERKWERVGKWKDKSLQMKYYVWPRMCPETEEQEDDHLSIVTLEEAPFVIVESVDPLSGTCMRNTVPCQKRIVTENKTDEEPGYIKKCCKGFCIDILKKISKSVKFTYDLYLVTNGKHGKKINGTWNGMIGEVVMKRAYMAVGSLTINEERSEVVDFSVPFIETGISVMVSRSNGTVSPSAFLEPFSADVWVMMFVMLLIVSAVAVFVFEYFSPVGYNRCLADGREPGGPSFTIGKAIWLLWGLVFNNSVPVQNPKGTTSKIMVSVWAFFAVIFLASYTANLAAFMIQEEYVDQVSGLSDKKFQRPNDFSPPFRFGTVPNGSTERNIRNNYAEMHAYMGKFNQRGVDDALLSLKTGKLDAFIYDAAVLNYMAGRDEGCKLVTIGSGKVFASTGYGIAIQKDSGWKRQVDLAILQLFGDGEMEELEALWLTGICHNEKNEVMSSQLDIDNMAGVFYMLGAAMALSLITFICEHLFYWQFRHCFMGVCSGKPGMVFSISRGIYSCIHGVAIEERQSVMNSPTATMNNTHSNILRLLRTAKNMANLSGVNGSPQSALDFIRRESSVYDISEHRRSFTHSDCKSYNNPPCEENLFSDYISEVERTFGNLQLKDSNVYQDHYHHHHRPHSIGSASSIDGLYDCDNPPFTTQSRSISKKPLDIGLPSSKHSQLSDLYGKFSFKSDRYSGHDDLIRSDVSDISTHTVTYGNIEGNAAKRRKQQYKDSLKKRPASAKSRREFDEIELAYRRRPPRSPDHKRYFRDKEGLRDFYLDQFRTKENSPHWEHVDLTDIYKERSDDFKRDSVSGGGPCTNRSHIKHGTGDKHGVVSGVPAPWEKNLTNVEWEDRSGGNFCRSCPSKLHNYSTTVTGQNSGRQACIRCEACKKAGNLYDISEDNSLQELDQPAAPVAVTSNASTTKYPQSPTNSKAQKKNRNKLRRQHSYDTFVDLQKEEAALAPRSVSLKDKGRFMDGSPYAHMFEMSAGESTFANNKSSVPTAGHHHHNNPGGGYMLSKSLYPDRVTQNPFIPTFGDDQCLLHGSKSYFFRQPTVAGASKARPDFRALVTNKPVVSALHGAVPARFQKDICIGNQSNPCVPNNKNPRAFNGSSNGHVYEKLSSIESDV

Compound | IC50 [nM] | pIC50
Cc1cc(-c2cnc3ccn(CC4CO4)c3c2)ccc1F (racemic) [Example 180, (R/S)-6-(4-Fluoro-3-methyl-phenyl)-1-(oxiran-2-ylmethyl)pyrrolo[3,2-b]pyridine trifluoroacetate salt] | 794 | 
Cc1cc(-c2cnc3ccn(CC4CCO4)c3c2)ccc1F (racemic) [Example 184, (R/S)-6-(4-Fluoro-3-methyl-phenyl)-1-(oxetan-2-ylmethyl)pyrrolo[3,2-b]pyridine trifluoroacetate salt] | 501 | 
Cc1cc(-c2cnc3ccn(CC(=O)N4CC5CC5C4)c3c2)ccc1F (racemic) [Example 189, (R/S)-1-(3-Azabicyclo[3.1.0]hexan-3-yl)-2-[6-(4-fluoro-3-methyl-phenyl)pyrrolo[3,2-b]pyridin-1-yl]ethanone trifluoroacetate salt] | 126 | 
Cc1cc(-c2cnc3ccn(CC(=O)N4CCOC(C)C4)c3c2)ccc1F (racemic) [Example 194, (R/S)-2-[6-(4-Fluoro-3-methyl-phenyl)pyrrolo[3,2-b]pyridin-1-yl]-1-(2-methylmorpholin-4-yl)ethanone trifluoroacetate salt] | 158 | 
Cc1cc(-c2cnc3ccn(CC(=O)N4CCCC(C(F)(F)F)C4)c3c2)ccc1F (racemic) [Example 195, (R/S)-2-[6-(4-Fluoro-3-methyl-phenyl)pyrrolo[3,2-b]pyridin-1-yl]-1-[3-(trifluoromethyl)-1-piperidyl]ethanone trifluoroacetate salt] | 398 | 
CCC1CCCN1C(=O)Cn1ccc2ncc(-c3ccc(F)c(C)c3)cc21 (racemic) [Example 196, (R/S)-1-(2-Ethylpyrrolidin-1-yl)-2-[6-(4-fluoro-3-methyl-phenyl)pyrrolo[3,2-b]pyridin-1-yl]ethanone trifluoroacetate salt] | 1260 | 
COC1CCN(C(=O)Cn2ccc3ncc(-c4ccc(F)c(C)c4)cc32)C1 (racemic) [Example 198, (R/S)-2-[6-(4-Fluoro-3-methyl-phenyl)pyrrolo[3,2-b]pyridin-1-yl]-1-(3-methoxypyrrolidin-1-yl)ethanone trifluoroacetate salt] | 1000 | 
Cc1cc(-c2cnc3ccn(CC(=O)N4CCCC(F)C4)c3c2)ccc1F (racemic) [Example 199, (R/S)-2-[6-(4-Fluoro-3-methyl-phenyl)pyrrolo[3,2-b]pyridin-1-yl]-1-(3-fluoro-1-piperidyl)ethanone trifluoroacetate salt] | 200 | 
Cc1cc(-c2cnc3ccn(CC(=O)N4CCOCC4C)c3c2)ccc1F (racemic) [Example 210, (R/S)-2-[6-(4-Fluoro-3-methyl-phenyl)pyrrolo[3,2-b]pyridin-1-yl]-1-(3-methylmorpholin-4-yl)ethanone trifluoroacetate salt] | 398 | 
O=C(Cn1ccc2ncc(-c3ccc(F)cc3)cc21)N1CCC(O)C1 (racemic) [Example 218, (R/S)-2-[6-(4-Fluorophenyl)pyrrolo[3,2-b]pyridin-1-yl]-1-(3-hydroxypyrrolidin-1-yl)ethanone] | 398 | 
Fc1ccc(-c2cnc3ccn(CC4CCCCO4)c3c2)cc1 (racemic) [Example 228, (R/S)-6-(4-Fluorophenyl)-1-(tetrahydropyran-2-ylmethyl)pyrrolo[3,2-b]pyridine trifluoroacetate salt] | 631 | 
CC(NC(=O)Cn1ccc2ncc(-c3ccc(F)cc3)cc21)C(F)(F)F (racemic) [Example 231, (R/S)-2-[6-(4-Fluorophenyl)pyrrolo[3,2-b]pyridin-1-yl]-N-(2,2,2-trifluoro-1-methyl-ethyl)acetamide] | 2000 | 
Cc1cc(-c2cnc3ccn(CC(C)(O)C4CC4)c3c2)ccc1F (racemic) [Example 275, (R/S)-2-Cyclopropyl-1-[6-(4-fluoro-3-methyl-phenyl)pyrrolo[3,2-b]pyridin-1-yl]propan-2-ol trifluoroacetate salt] | 158 | 
Cc1cc(-c2cnc3ccn(CC(F)C4CC4)c3c2)ccc1F (racemic) [Example 289, (R/S)-1-(2-Cyclopropyl-2-fluoro-ethyl)-6-(4-fluoro-3-methyl-phenyl)pyrrolo[3,2-b]pyridine] | 79.4 | 
Cc1cc(-c2cnc3ccn(C[S+](C)[O-])c3c2)ccc1F (racemic) [Example 331, (R/S)-6-(4-Fluoro-3-methyl-phenyl)-1-(methylsulfinylmethyl)pyrrolo[3,2-b]pyridine] | 3980 | 
O=C(Cn1cc(Cl)c2ncc(-c3ccccc3)cc21)NC1CC1 [Example 1, 2-(3-Chloro-6-phenyl-pyrrolo[3,2-b]pyridin-1-yl)-N-cyclopropyl-acetamide] | 316 | 
O=C(Cn1cc(Cl)c2ncc(-c3ccc(F)cc3)cc21)NC1CC1 [Example 2, 2-[3-Chloro-6-(4-fluorophenyl)pyrrolo[3,2-b]pyridin-1-yl]-N-cyclopropyl-acetamide] | 126 | 
O=C(Cn1cc(Cl)c2ncc(-c3ccc(F)cc3)cc21)N1CCC1 [Example 3, 1-(Azetidin-1-yl)-2-[3-chloro-6-(4-fluorophenyl)pyrrolo[3,2-b]pyridin-1-yl]ethanone] |  | 7.6
O=C(Cn1cc(Cl)c2ncc(-c3ccccc3)cc21)N1CCOCC1 [Example 5, 2-(3-Chloro-6-phenyl-pyrrolo[3,2-b]pyridin-1-yl)-1-morpholino-ethanone] | 200 | 
O=C(Cn1cc(Cl)c2ncc(-c3ccc(F)cc3)cc21)N1CCOCC1 [Example 7, 2-[3-Chloro-6-(4-fluorophenyl)pyrrolo[3,2-b]pyridin-1-yl]-1-morpholino-ethanone] | 158 | 
O=C(Cn1cc(Cl)c2ncc(-c3ccc(F)cc3)cc21)N1CCCC1 [Example 9, 2-[3-Chloro-6-(4-fluorophenyl)pyrrolo[3,2-b]pyridin-1-yl]-1-pyrrolidin-1-yl-ethanone] | 63.1 | 
O=C(Cn1cc(Br)c2ncc(-c3ccccc3)cc21)NC1CC1 [Example 14, 2-(3-Bromo-6-phenyl-pyrrolo[3,2-b]pyridin-1-yl)-N-cyclopropyl-acetamide] | 126 | 
O=C(Cn1cc(Br)c2ncc(-c3ccccc3)cc21)N1CCOCC1 [Example 16, 2-(3-Bromo-6-phenyl-pyrrolo[3,2-b]pyridin-1-yl)-1-morpholino-ethanone] | 79.4 | 

Further lines, results first:

IC50 [nM] | pIC50 | Compound
25.1 |  | CC(C)C(O)Cn1ccc2ncc(-c3cc(F)cc(F)c3)cc21 (racemic) [Example 272]
31.6 |  | O=C(Cn1ccc2ncc(-c3ccc(F)cc3)cc21)N1CC[C@H](F)C1 (single isomer, unassigned) [Example 293, trifluoroacetate salt]
50.1 |  | O=C(Cn1cc(Cl)c2ncc(-c3ccccc3)cc21)N1CCCC1 [Example 4, 2-(3-Chloro-6-phenyl-pyrrolo[3,2-b]pyridin-1-yl)-1-pyrrolidin-1-yl-ethanone]
50.1 |  | O=C(Cn1cc(Cl)c2ncc(-c3ccccc3)cc21)N1CCC1 [Example 6, 1-(Azetidin-1-yl)-2-(3-chloro-6-phenyl-pyrrolo[3,2-b]pyridin-1-yl)ethanone]
31.6 |  | Cc1cccc(-c2cnc3c(Cl)cn(CC(=O)N4CCC4)c3c2)c1 [Example 8, 1-(Azetidin-1-yl)-2-[3-chloro-6-(m-tolyl)pyrrolo[3,2-b]pyridin-1-yl]ethanone]
50.1 |  | Cc1cccc(-c2cnc3c(Cl)cn(CC(=O)NC4CC4)c3c2)c1 [Example 10, 2-[3-Chloro-6-(m-tolyl)pyrrolo[3,2-b]pyridin-1-yl]-N-cyclopropyl-acetamide]
25.1 |  | O=C(Cn1cc(Br)c2ncc(-c3ccccc3)cc21)N1CCC1 [Example 11, 1-(Azetidin-1-yl)-2-(3-bromo-6-phenyl-pyrrolo[3,2-b]pyridin-1-yl)ethanone]
39.8 |  | Cc1cccc(-c2cnc3c(Cl)cn(CC(=O)N4CCCC4)c3c2)c1 [Example 12, 2-[3-Chloro-6-(m-tolyl)pyrrolo[3,2-b]pyridin-1-yl]-1-pyrrolidin-1-yl-ethanone]
50.1 |  | Cc1cccc(-c2cnc3c(Cl)cn(CC(=O)N4CCOCC4)c3c2)c1 [Example 13, 2-[3-Chloro-6-(m-tolyl)pyrrolo[3,2-b]pyridin-1-yl]-1-morpholino-ethanone]
39.8 |  | O=C(Cn1cc(Br)c2ncc(-c3ccccc3)cc21)N1CCCC1 [Example 15, 2-(3-Bromo-6-phenyl-pyrrolo[3,2-b]pyridin-1-yl)-1-pyrrolidin-1-yl-ethanone]
50.1 |  | O=C(Cn1cc(Br)c2ncc(-c3ccc(F)cc3)cc21)NC1CC1 [Example 17, 2-[3-Bromo-6-(4-fluorophenyl)pyrrolo[3,2-b]pyridin-1-yl]-N-cyclopropyl-acetamide]
20 |  | O=C(Cn1cc(Br)c2ncc(-c3ccc(F)cc3)cc21)N1CCC1 [Example 18, 1-(Azetidin-1-yl)-2-[3-bromo-6-(4-fluorophenyl)pyrrolo[3,2-b]pyridin-1-yl]ethanone]
31.6 |  | O=C(Cn1cc(Br)c2ncc(-c3ccc(F)cc3)cc21)N1CCCC1 [Example 19, 2-[3-Bromo-6-(4-fluorophenyl)pyrrolo[3,2-b]pyridin-1-yl]-1-pyrrolidin-1-yl-ethanone]
